Results reported in the supplement of paper PMC10307832.

Assays:
Assay in all cases: relative viability (nuclei count vs DMSO), 5 days (fraction); higher = more cells survive
Kobe2602 + OSI-027 = compound: C1=CC(=CC=C1NC(=S)NNC2=C(C=C(C=C2[N+](=O)[O-])C(F)(F)F)[N+](=O)[O-])F [Kobe2602] + COc1cccc2cc(-c3nc([C@H]4CC[C@H](C(=O)O)CC4)n4ncnc(N)c34)[nH]c12 [OSI-027] (partner 0.5 µM)
Method in brief: (§1)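 Lung cancer cell lines, seeded in 1536-well plates, were treated the following day by pin tool with a single drug or with five library-drug doses (not always all listed) in √10 steps on top of a fixed anchor-drug dose. Cells were fixed and nuclei stained in one step after 5 days, and nuclei were counted. Relative viability is the nuclei count for treated wells divided by that for vehicle wells, reported as medians of duplicate plates.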

Kobe2602 + Decitabine = compound: C1=CC(=CC=C1NC(=S)NNC2=C(C=C(C=C2[N+](=O)[O-])C(F)(F)F)[N+](=O)[O-])F [Kobe2602] + Nc1ncn([C@H]2C[C@H](O)[C@@H](CO)O2)c(=O)n1 [Decitabine] (partner 2 µM)
Method in brief: as §1

[1] = compound: COc1cc2nccc(Oc3ccc(NC(=O)C4(C(=O)Nc5ccc(F)cc5)CC4)cc3)c2cc1OC [Cabozantinib] + CC1(C)CCC(c2ccc(Cl)cc2)=C(CN2CCN(c3ccc(C(=O)NS(=O)(=O)c4ccc(N[C@H](CCN5CCOCC5)CSc5ccccc5)c(S(=O)(=O)C(F)(F)F)c4)cc3)CC2)C1 [Navitoclax] (partner 0.5 µM)
Method in brief: as §1

Cabozantinib + AZD7762 = compound: COc1cc2nccc(Oc3ccc(NC(=O)C4(C(=O)Nc5ccc(F)cc5)CC4)cc3)c2cc1OC [Cabozantinib] + NC(=O)Nc1cc(-c2cccc(F)c2)sc1C(=O)N[C@H]1CCCNC1 [AZD7762] (partner 0.2 µM)
Method in brief: as §1

| Cell Line | relative viability (Kobe2602 + OSI-027; first compound 0.2 µM) | relative viability (Kobe2602 + OSI-027; first compound 0.6325 µM) | relative viability (Kobe2602 + OSI-027; first compound 2 µM) | relative viability (Kobe2602 + OSI-027; first compound 6.325 µM) | relative viability (Kobe2602 + OSI-027; first compound 20 µM) | relative viability (Kobe2602 + Decitabine; first compound 0.2 µM) | relative viability (Kobe2602 + Decitabine; first compound 0.6325 µM) | relative viability (Kobe2602 + Decitabine; first compound 2 µM) | relative viability (Kobe2602 + Decitabine; first compound 6.325 µM) | relative viability (Kobe2602 + Decitabine; first compound 20 µM) | relative viability ([1]; first compound 0.02 µM) | relative viability ([1]; first compound 0.06325 µM) | relative viability ([1]; first compound 0.2 µM) | relative viability ([1]; first compound 0.6325 µM) | relative viability ([1]; first compound 2 µM) | relative viability (Cabozantinib + AZD7762; first compound 0.02 µM) | relative viability (Cabozantinib + AZD7762; first compound 0.06325 µM) | relative viability (Cabozantinib + AZD7762; first compound 0.2 µM) | relative viability (Cabozantinib + AZD7762; first compound 0.6325 µM) | relative viability (Cabozantinib + AZD7762; first compound 2 µM) |
| --- | --- | --- | --- | --- | --- | --- | --- | --- | --- | --- | --- | --- | --- | --- | --- | --- | --- | --- | --- | --- |
| LU99A | 0.336 | 0.329 | 0.281 | 0.342 | 0.333 | 0.913 | 1.01 | 0.746 | 0.955 | 0.859 | 0.774 | 0.9 | 0.762 | 0.686 | 0.783 | 0.292 | 0.376 | 0.411 | 0.279 | 0.397 |
| NCI-H2405 | 0.609 | 0.616 | 0.619 | 0.727 | 0.719 | 0.737 | 0.749 | 0.732 | 0.745 | 0.806 | – | 1.09 | 0.881 | 0.787 | 0.856 | 0.687 | 0.918 | 0.769 | 0.68 | 0.655 |
| HCC-827 | 0.787 | 0.743 | 0.755 | 0.762 | 0.718 | 0.354 | 0.266 | 0.355 | 0.325 | 0.404 | 1.05 | 1.07 | – | 1.05 | 0.981 | 0.189 | 0.268 | – | 0.225 | 0.189 |
| NCI-H838 | 0.427 | 0.433 | 0.397 | 0.417 | 0.371 | 0.474 | 0.478 | 0.46 | 0.472 | 0.527 | 1.21 | 1.19 | 1.12 | 1.03 | 1.03 | 1 | 0.74 | 0.908 | 0.93 | 0.866 |
| RERF-LC-KJ | 0.615 | 0.485 | 0.555 | 0.481 | 0.257 | 0.648 | 0.69 | 0.576 | 0.591 | 0.37 | 1.06 | 1.08 | 0.948 | 0.866 | 0.921 | 0.811 | 1.06 | 0.963 | 0.946 | 1.01 |
| NCI-H2347 | 0.425 | 0.495 | 0.403 | 0.278 | 0.571 | 0.648 | 0.618 | 0.594 | 0.569 | 0.661 | 0.83 | 0.994 | 0.803 | 0.612 | 0.375 | 0.748 | 0.889 | 0.668 | 0.378 | 0.444 |
| PC-14 | 0.836 | 0.887 | 0.87 | 0.792 | 0.339 | 0.224 | 0.201 | 0.235 | 0.234 | 0.247 | 1.06 | 1.09 | – | 0.931 | 0.997 | 0.323 | 0.415 | – | 0.406 | 0.354 |
| HCC-366 | 0.727 | 0.975 | 0.886 | 0.847 | 0.894 | 0.31 | 0.337 | 0.333 | 0.34 | 0.36 | 1.15 | 1.11 | 1.16 | 1.03 | 1.06 | 0.34 | 0.358 | 0.21 | 0.209 | 0.275 |
| LCLC-97TM1 | 0.475 | 0.488 | 0.551 | 0.556 | 0.584 | 0.234 | 0.229 | – | 0.242 | 0.28 | – | 0.5 | 0.618 | 0.484 | 0.589 | – | 0.305 | 0.285 | 0.195 | 0.304 |
| HCC-44 | 0.484 | 0.597 | 0.377 | 0.586 | 0.683 | 0.993 | 0.894 | 0.897 | 0.896 | 0.91 | 1.01 | 1.1 | 1.02 | 1.07 | 0.965 | 1.04 | 1.03 | 1.08 | 1.07 | 1.12 |
| A-427 | 0.508 | 0.583 | 0.399 | 0.446 | 0.476 | 0.589 | 0.628 | 0.51 | 0.539 | 0.616 | 0.988 | 1.03 | 0.998 | 0.978 | 0.978 | 0.757 | 0.806 | 0.788 | 0.772 | 0.683 |
| NCI-H23 | 0.499 | 0.673 | 0.541 | 0.638 | 0.667 | 0.2 | 0.345 | 0.316 | 0.304 | 0.39 | – | 0.913 | 0.972 | 0.71 | 0.644 | – | 0.312 | 0.248 | 0.261 | 0.241 |
| NCI-H1395 | 0.633 | 0.866 | 0.717 | 0.731 | 0.651 | 0.764 | 0.752 | 0.712 | 0.687 | 0.68 | 1.13 | 1.1 | 1.41 | 1.12 | 1.12 | 0.367 | 0.445 | 0.436 | 0.42 | 0.401 |
| NCI-H2085 | 0.685 | 0.898 | – | 0.677 | 0.799 | 0.549 | 0.549 | 0.568 | 0.552 | 0.616 | 1.16 | 1.17 | 1.15 | 1.21 | 1.06 | 1.08 | 1.06 | 0.766 | 0.768 | 0.727 |
| NCI-H1944 | 0.453 | 0.48 | 0.391 | 0.416 | 0.464 | 0.502 | 0.452 | 0.46 | 0.439 | 0.48 | – | 1.08 | 0.972 | 0.969 | 0.921 | 0.492 | 0.552 | 0.598 | 0.55 | 0.69 |
| NCI-H2170 | 0.736 | 0.755 | 0.7 | 0.658 | 0.791 | 0.492 | 0.455 | 0.481 | 0.449 | 0.478 | 0.579 | 0.611 | 0.559 | 0.652 | 0.62 | 0.871 | 0.937 | 0.779 | 0.864 | 1.01 |
